{"source": "ChEMBL document CHEMBL1201862", "about": "“PubChem BioAssay data set” (2004)", "experiment_in_all_cases": "DTP human tumour cell line panel, 48 h", "key": {"[1]": {"test_system": "SK-MEL-28"}, "[2]": {"test_system": "NCI-H460"}, "[3]": {"test_system": "KM12"}, "[4]": {"test_system": "MDA-MB-435"}, "[5]": {"test_system": "PC-3"}, "[6]": {"test_system": "MOLT-4"}, "[7]": {"test_system": "NCI-H522"}, "[8]": {"test_system": "IGROV-1"}, "[9]": {"test_system": "A549"}, "[10]": {"test_system": "HOP-92"}, "[11]": {"test_system": "MDA-MB-231"}, "[12]": {"test_system": "SK-OV-3"}, "[13]": {"test_system": "MDA-N"}, "[14]": {"test_system": "OVCAR-8"}, "[15]": {"test_system": "CAKI-1"}, "[16]": {"test_system": "UACC-257"}, "[17]": {"test_system": "UO-31"}, "[18]": {"test_system": "OVCAR-4"}, "[19]": {"test_system": "SF-268"}, "[20]": {"test_system": "NCI/ADR-RES"}, "[21]": {"test_system": "UACC-62"}, "[22]": {"test_system": "NCI-H23"}, "[23]": {"test_system": "HCT-116"}, "[24]": {"test_system": "SN12C"}, "[25]": {"test_system": "SK-MEL-5"}, "[26]": {"test_system": "LOX IMVI"}, "[27]": {"test_system": "HT-29"}, "[28]": {"test_system": "T47D"}, "[29]": {"test_system": "U-251"}, "[30]": {"test_system": "SW-620"}, "[31]": {"test_system": "ACHN"}, "[32]": {"test_system": "SF-539"}, "[33]": {"test_system": "SF-295"}, "[34]": {"test_system": "CCRF-CEM"}, "[35]": {"test_system": "NCI-H226"}, "[36]": {"test_system": "TK-10"}, "[37]": {"test_system": "Hs-578T"}, "[38]": {"test_system": "COLO 205"}, "[39]": {"test_system": "SK-MEL-2"}, "[40]": {"test_system": "SNB-75"}, "[41]": {"test_system": "SNB-19"}, "[42]": {"test_system": "SR"}, "[43]": {"test_system": "RXF 393"}, "[44]": {"test_system": "HCT-15"}, "[45]": {"test_system": "786-0"}, "[46]": {"test_system": "HOP-62"}, "[47]": {"test_system": "Malme-3M"}, "[48]": {"test_system": "EKVX"}, "[49]": {"test_system": "RPMI-8226"}, "[50]": {"test_system": "HL-60"}, "[51]": {"test_system": "HCC 2998"}, "[52]": {"test_system": "DU-145"}, "[53]": {"test_system": "A498"}, "[54]": {"test_system": "K562"}, "[55]": {"test_system": "OVCAR-5"}, "[56]": {"test_system": "M14"}, "[57]": {"test_system": "MCF7"}, "[58]": {"test_system": "OVCAR-3"}}, "note": "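Tested at 5 concentrations; 48 h exposure; 96-well plates; endpoints linearly interpolated, else capped at highest concentration. GI50 = concentration required for 50% inhibition of growth.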 Activity calls are given as the source filed them. No stated cut-off is given here; in the data, active = GI50 up to about 1.1 µM and inactive = higher.", "data": [{"compound": "O=C1C(=O)N(C23CC4CC(CC(C4)C2)C3)C(=S)N1c1ccccc1", "values": [{"measurement": "GI50", "setting": "[1]", "result": "> 100 µM (inactive)"}, {"measurement": "GI50", "setting": "[2]", "result": "97.9 µM (inactive)"}, {"measurement": "GI50", "setting": "[3]", "result": "> 100 µM (inactive)"}, {"measurement": "GI50", "setting": "[4]", "result": "> 100 µM (inactive)"}, {"measurement": "GI50", "setting": "[5]", "result": "> 100 µM (inactive)"}, {"measurement": "GI50", "setting": "[6]", "result": "> 100 µM (inactive)"}, {"measurement": "GI50", "setting": "[7]", "result": "17.1 µM (inactive)"}, {"measurement": "GI50", "setting": "[8]", "result": "> 100 µM (inactive)"}, {"measurement": "GI50", "setting": "[9]", "result": "65.5 µM (inactive)"}, {"measurement": "GI50", "setting": "[10]", "result": "30 µM (inactive)"}, {"measurement": "GI50", "setting": "[11]", "result": "> 100 µM (inactive)"}, {"measurement": "GI50", "setting": "[12]", "result": "> 100 µM (inactive)"}, {"measurement": "GI50", "setting": "[13]", "result": "> 100 µM (inactive)"}, {"measurement": "GI50", "setting": "[14]", "result": "97.9 µM (inactive)"}, {"measurement": "GI50", "setting": "[15]", "result": "> 100 µM (inactive)"}, {"measurement": "GI50", "setting": "[16]", "result": "32.7 µM (inactive)"}, {"measurement": "GI50", "setting": "[17]", "result": "> 100 µM (inactive)"}, {"measurement": "GI50", "setting": "[18]", "result": "> 100 µM (inactive)"}, {"measurement": "GI50", "setting": "[19]", "result": "> 100 µM (inactive)"}, {"measurement": "GI50", "setting": "[20]", "result": "66.2 µM (inactive)"}, {"measurement": "GI50", "setting": "[21]", "result": "> 100 µM (inactive)"}, {"measurement": "GI50", "setting": "[22]", "result": "49.1 µM (inactive)"}, {"measurement": "GI50", "setting": "[23]", "result": "93.5 µM (inactive)"}, {"measurement": "GI50", "setting": "[24]", "result": "> 100 µM (inactive)"}, {"measurement": "GI50", "setting": "[25]", "result": "61.2 µM (inactive)"}, {"measurement": "GI50", "setting": "[26]", "result": "> 100 µM (inactive)"}, {"measurement": "GI50", "setting": "[27]", "result": "> 100 µM (inactive)"}, {"measurement": "GI50", "setting": "[28]", "result": "> 100 µM (inactive)"}, {"measurement": "GI50", "setting": "[29]", "result": "> 100 µM (inactive)"}, {"measurement": "GI50", "setting": "[30]", "result": "> 100 µM (inactive)"}, {"measurement": "GI50", "setting": "[31]", "result": "> 100 µM (inactive)"}, {"measurement": "GI50", "setting": "[32]", "result": "> 100 µM (inactive)"}, {"measurement": "GI50", "setting": "[33]", "result": "97.5 µM (inactive)"}, {"measurement": "GI50", "setting": "[34]", "result": "29 µM (inactive)"}, {"measurement": "GI50", "setting": "[35]", "result": "60 µM (inactive)"}, {"measurement": "GI50", "setting": "[36]", "result": "58.9 µM (inactive)"}, {"measurement": "GI50", "setting": "[37]", "result": "> 100 µM (inactive)"}, {"measurement": "GI50", "setting": "[38]", "result": "> 100 µM (inactive)"}, {"measurement": "GI50", "setting": "[39]", "result": "70.8 µM (inactive)"}, {"measurement": "GI50", "setting": "[40]", "result": "> 100 µM (inactive)"}, {"measurement": "GI50", "setting": "[41]", "result": "> 100 µM (inactive)"}, {"measurement": "GI50", "setting": "[42]", "result": "> 100 µM (inactive)"}, {"measurement": "GI50", "setting": "[43]", "result": "> 100 µM (inactive)"}, {"measurement": "GI50", "setting": "[44]", "result": "> 100", "unit": "µM"}, {"measurement": "GI50", "setting": "[45]", "result": "> 100 µM (inactive)"}, {"measurement": "GI50", "setting": "[46]", "result": "> 100 µM (inactive)"}, {"measurement": "GI50", "setting": "[47]", "result": "> 100 µM (inactive)"}, {"measurement": "GI50", "setting": "[48]", "result": "43.5 µM (inactive)"}, {"measurement": "GI50", "setting": "[49]", "result": "> 100 µM (inactive)"}, {"measurement": "GI50", "setting": "[50]", "result": "42.8 µM (inactive)"}, {"measurement": "GI50", "setting": "[51]", "result": "> 100 µM (inactive)"}, {"measurement": "GI50", "setting": "[52]", "result": "> 100 µM (inactive)"}, {"measurement": "GI50", "setting": "[53]", "result": "> 100 µM (inactive)"}, {"measurement": "GI50", "setting": "[54]", "result": "> 100 µM (inactive)"}, {"measurement": "GI50", "setting": "[55]", "result": "> 100 µM (inactive)"}]}, {"compound": "CCOC(=O)Cc1c(C)c2ccc(OC(C)=O)c(OC(C)=O)c2oc1=O", "values": [{"measurement": "GI50", "setting": "[1]", "result": "21.3 µM (inactive)"}, {"measurement": "GI50", "setting": "[3]", "result": "32.7 µM (inactive)"}, {"measurement": "GI50", "setting": "[4]", "result": "28.1 µM (inactive)"}, {"measurement": "GI50", "setting": "[5]", "result": "23.3 µM (inactive)"}, {"measurement": "GI50", "setting": "[6]", "result": "23.6 µM (inactive)"}, {"measurement": "GI50", "setting": "[8]", "result": "15.3 µM (inactive)"}, {"measurement": "GI50", "setting": "[9]", "result": "21.9 µM (inactive)"}, {"measurement": "GI50", "setting": "[56]", "result": "17.9 µM (inactive)"}, {"measurement": "GI50", "setting": "[10]", "result": "17.5 µM (inactive)"}, {"measurement": "GI50", "setting": "[11]", "result": "37.1 µM (inactive)"}, {"measurement": "GI50", "setting": "[12]", "result": "> 100 µM (inactive)"}, {"measurement": "GI50", "setting": "[13]", "result": "> 100 µM (inactive)"}, {"measurement": "GI50", "setting": "[14]", "result": "18.6 µM (inactive)"}, {"measurement": "GI50", "setting": "[16]", "result": "14.8 µM (inactive)"}, {"measurement": "GI50", "setting": "[17]", "result": "13.9 µM (inactive)"}, {"measurement": "GI50", "setting": "[18]", "result": "16.5 µM (inactive)"}, {"measurement": "GI50", "setting": "[19]", "result": "19.6 µM (inactive)"}, {"measurement": "GI50", "setting": "[20]", "result": "22 µM (inactive)"}, {"measurement": "GI50", "setting": "[21]", "result": "32.7 µM (inactive)"}, {"measurement": "GI50", "setting": "[22]", "result": "22.4 µM (inactive)"}, {"measurement": "GI50", "setting": "[23]", "result": "34 µM (inactive)"}, {"measurement": "GI50", "setting": "[24]", "result": "41.8 µM (inactive)"}, {"measurement": "GI50", "setting": "[25]", "result": "19.5 µM (inactive)"}, {"measurement": "GI50", "setting": "[26]", "result": "25.3 µM (inactive)"}, {"measurement": "GI50", "setting": "[27]", "result": "29.6 µM (inactive)"}, {"measurement": "GI50", "setting": "[57]", "result": "24.6 µM (inactive)"}, {"measurement": "GI50", "setting": "[29]", "result": "23.1 µM (inactive)"}, {"measurement": "GI50", "setting": "[30]", "result": "20.7 µM (inactive)"}, {"measurement": "GI50", "setting": "[31]", "result": "33.8 µM (inactive)"}, {"measurement": "GI50", "setting": "[33]", "result": "36.7 µM (inactive)"}, {"measurement": "GI50", "setting": "[34]", "result": "4.09 µM (inactive)"}, {"measurement": "GI50", "setting": "[35]", "result": "32.7 µM (inactive)"}, {"measurement": "GI50", "setting": "[36]", "result": "20.9 µM (inactive)"}, {"measurement": "GI50", "setting": "[37]", "result": "32.4 µM (inactive)"}, {"measurement": "GI50", "setting": "[38]", "result": "40 µM (inactive)"}, {"measurement": "GI50", "setting": "[39]", "result": "49.5 µM (inactive)"}, {"measurement": "GI50", "setting": "[40]", "result": "19.4 µM (inactive)"}, {"measurement": "GI50", "setting": "[41]", "result": "13.3 µM (inactive)"}, {"measurement": "GI50", "setting": "[42]", "result": "14.3 µM (inactive)"}, {"measurement": "GI50", "setting": "[44]", "result": 18.7, "unit": "µM"}, {"measurement": "GI50", "setting": "[45]", "result": "27.7 µM (inactive)"}, {"measurement": "GI50", "setting": "[46]", "result": "40.6 µM (inactive)"}, {"measurement": "GI50", "setting": "[47]", "result": "12.3 µM (inactive)"}, {"measurement": "GI50", "setting": "[48]", "result": "23.1 µM (inactive)"}, {"measurement": "GI50", "setting": "[49]", "result": "18.3 µM (inactive)"}, {"measurement": "GI50", "setting": "[58]", "result": "20.1 µM (inactive)"}, {"measurement": "GI50", "setting": "[52]", "result": "24.9 µM (inactive)"}, {"measurement": "GI50", "setting": "[53]", "result": "44.1 µM (inactive)"}, {"measurement": "GI50", "setting": "[54]", "result": "28.8 µM (inactive)"}, {"measurement": "GI50", "setting": "[55]", "result": "53.6 µM (inactive)"}]}]}
